Earlier results on one compound are cited in patent US20130296280A1, “EUTECTIC MIXTURE COMPRISING CELECOXIB AND POLOXAMER” (priority 2012, published 2013).

SMILES strings stand for the structures.

The conditions of the data set: oral celecoxib; Drug Metab Dispos. 2000:28:308-314.

`Cc1ccc(-c2cc(C(F)(F)F)nn2-c2ccc(S(N)(=O)=O)cc2)cc1` [celecoxib, 4-[5-(4-methylphenyl)-3-(trifluoromethyl)-1H-pyrazol-1-yl]benzenesulfonamide]: the bioavailability was 22-40%.
